Patent publication US20250170155A1, “NUCLEOSIDE DERIVATIVES AND PRODRUGS THEREOF HAVING VIRAL GROWTH INHIBITORY ACTION” (Shionogi & Co., Ltd., priority 2021, published 2025)
pEC50: −log10 of the molar value.

Tests used:
Type in all cases: cell-based
[1] = Cytotoxic activity evaluation, Vero E6/TMPRSS2 cells; conditions: African green monkey, no virus
Description: (§1) <Operation Procedure (Cytotoxic Activity Evaluation)>
A 3- to 5-fold serial dilution series of test substances was prepared in DMSO, diluted with 2% FBS/MEM so that the concentration of DMSO was 2%, and dispensed into a 96 well plate (50 μL/well, DMSO final concentration 0.5%). • Dilution and dispensing of cells
The cells prepared to an appropriate number were seeded at 100 μL/well to the plate into which the test substance was dispensed. Thereafter, the cells were cultured in a CO2 incubator at 37° C. for 3 days. • Dispensing of CellTiter-Glo (registered trademark) 2.0 Reagent
Same as those described in the section for evaluation of antiviral activity • Measurement of luminescence intensity
(§2) Same as those described in the section for evaluation of antiviral activity
Excel, TIBCO Spotfire, or a program having equivalent calculation processing capability based on the following calculation formula.

[2] = tested on: SARS-CoV-2 (hCoV-19/Japan/TY/WK-521/2020 strain); experiment: CPE suppression effect confirmation test (SARS-CoV-2, Vero E6/TMPRSS2 cells), antiviral activity; conditions: for pEC50: Severe acute respiratory syndrome coronavirus 2, VeroE6/TMPRSS2, 72 h, read-out: SARS-CoV-2 EC50 (50% CPE inhibitory concentration), 3 days culture
[3] = tested on: influenza virus (A/WSN/33 (H1N1) strain); experiment: CPE suppression effect confirmation test (influenza virus, RPMI 2650 cells), antiviral activity; conditions: for pEC50: read-out: Influenza EC50 (50% CPE inhibitory concentration), A/WSN/33 (H1N1), 3 to 6 days
[4] = Cytotoxic activity evaluation, RPMI 2650 cells; conditions: human, no virus, 3 to 6 days
Description: as §1
On the day before the compound treatment, cells prepared to an appropriate number were seeded in a 96 well plate at 100 μL/well. Thereafter, the cells were cultured in a CO2 incubator at 37° C. • Preparation of 2 μg/mL trypsin/0.5% BSA/MEM
Same as those described in the section for evaluation of antiviral activity • Dilution and dispensing of test substance
A 3- to 5-fold serial dilution series of test substances was prepared in DMSO in advance, and diluted with 2 μg/mL trypsin/0.5% BSA/MEM so that the final concentration of DMSO was 0.5% (100 to 200 μL/well). The cells were washed with MEM, and then cultured in a test substance-added medium for 3 to 6 days. Double measurement was performed for each drug. • Dispensing of resazurin solution
Same as those described in the section for evaluation of antiviral activity • Measurement of fluorescence intensity
as §2
[formula] [formula] • Calculation of Selectivity Index (SI)

[5] = tested on: SARS-CoV-2 (hCoV-19/Japan/TY/WK 521/2020 strain); experiment: microbe, parasite or virus in culture; conditions: HEK293T/ACE2-TMPRSS2 cells; for pEC50: Severe acute respiratory syndrome coronavirus 2, HEK-293T, 72 h, read-out: SARS-CoV-2 EC50 (50% CPE inhibitory concentration), 293T-AT, 3 days culture

Row | Compound | CC50 at 3 days [1] [µM] | SARS-CoV-2 SI (Selectivity Index) [2] | pEC50 [2] | Influenza SI (Selectivity Index) [3] | pEC50 [3] | CC50 [4] [µM] | SARS-CoV-2 SI (Selectivity Index), 293T-AT [5] | pEC50 [5]
1 | N=C(N)c1cc([C@@H]2N[C@H](CO)[C@@H](O)[C@H]2O)n2ncnc(N)c12 [Compound I-017] | > 500 | >11.1 | 4.35 | – | – | – | – | –
2 | Nc1ncnn2c([C@@H]3N[C@H](CO)[C@@H](O)[C@H]3O)cc(F)c12 [Compound I-006] | – | – | – | 17 | 6.50 | 5.38 | – | –
3 | Nc1ncnc2c([C@@H]3O[C@H](CO)[C@@H](O)[C@H]3F)c[nH]c12 [Compound I-002] | – | – | – | >105 | 5.32 | > 500 | – | –
4 | CN1[C@H](CO)[C@@H](O)[C@@H](O)[C@@H]1c1cc(C(N)=O)c2c(N)ncnn12.Cl [Compound I-076] | > 500 | >30.7 | 4.79 | – | – | – | – | –
5 | Nc1ncnn2c([C@@H]3N[C@H](CO)[C@@H](O)[C@H]3F)ccc12 [Compound I-013] | – | – | – | >1.99 | 3.60 | > 500 | – | –
6 | O=c1[nH]cnn2c([C@@H]3N[C@H](CO)[C@@H](O)[C@H]3O)ccc12 [Compound I-019] | – | – | – | >7.62 | 4.18 | > 500 | – | –
7 | Cl.Nc1ncnn2c([C@H]3N[C@@H](CO)[C@H](O)[C@@H]3O)cc(B(O)O)c12 [Compound I-032] | – | – | – | >1.38 | 3.44 | > 500 | – | –
8 | Cc1cnc(-c2cc([C@@H]3N[C@H](CO)[C@@H](O)[C@H]3O)n3ncnc(N)c23)s1 [Compound I-043] | – | – | – | >2.46 | 3.69 | > 500 | – | –
9 | Nc1ncnn2c([C@@H]3N[C@H](CO)[C@@H](O)[C@H]3O)cc(/C=N\O)c12 [Compound I-026] | – | – | – | >518 | 6.02 | > 500 | – | –
10 | Nc1ncnc2c([C@@H]3N[C@H](CO)[C@@H](O)[C@H]3O)cc(/C=N/O)n12 [Compound I-031] | – | – | – | >1.46 | 3.46 | > 500 | – | –
11 | OC[C@H]1N[C@@H](c2ccn3c(NO)ncnc23)[C@H](O)[C@@H]1O [Compound I-035] | – | – | – | >1.33 | 3.43 | > 500 | – | –
12 | Nc1ncnn2c([C@@H]3N[C@H](CO)[C@@H](O)[C@H]3O)ccc12 [WO2014078778 Example5_30 g, reference compound] | – | <0.41 | < 5.40 | 73.7 | 6.33 | – | <1.34 | < 5.40
13 | N#C[C@@]1(c2ccc3c(N)ncnn23)O[C@H](CO)[C@@H](O)[C@H]1O [GS-441524, reference compound] | – | – | – | – | < 3.30 | – | – | –
14 | Cl.Nc1ncnn2c([C@@H]3N[C@H](CO)[C@@H](O)[C@H]3O)cc(B(O)O)c12 [Compound I-011] | – | – | – | 11.2 | 5.17 | 75.1 | – | –
15 | Nc1ncnn2c([C@@H]3N[C@H](CO)[C@@H](O)[C@H]3O)cc(-c3ncc[nH]3)c12 [Compound I-033] | > 500 | >134 | 5.43 | – | – | – | – | –
16 | Cc1nc(-c2cc([C@@H]3N[C@H](CO)[C@@H](O)[C@H]3O)n3ncnc(N)c23)c[nH]1.Cl [Compound I-047] | > 500 | >10.4 | 4.32 | – | – | – | – | –
17 | N#CCc1cc([C@@H]2N[C@H](CO)[C@@H](O)[C@H]2O)n2ncnc(N)c12 [Compound I-028] | – | – | – | 20.6 | 5.31 | 102 | – | –
18 | N#C[C@@]1(c2cnc3c(N)ncnn23)O[C@H](CO)[C@@H](O)C1O (stereo partly drawn) [Compound I-042] | > 500 | >6.66 | 4.12 | – | – | – | – | –
19 | Nc1ncnc2c([C@@H]3N[C@H](CO)[C@@H](O)[C@H]3O)ccn12 [Compound I-012] | – | – | – | >281 | 5.75 | > 500 | – | –
20 | Cc1cc(-c2cc([C@@H]3N[C@H](CO)[C@@H](O)[C@H]3O)n3ncnc(N)c23)[nH]n1.Cl [Compound I-050] | > 500 | >11.0 | 4.34 | – | – | – | – | –

Row | Compound | CC50 at 3 days [1] [µM] | SARS-CoV-2 SI (Selectivity Index) [2] | pEC50 [2] | Influenza SI (Selectivity Index) [3] | pEC50 [3] | CC50 [4] [µM] | SARS-CoV-2 SI (Selectivity Index), 293T-AT [5] | pEC50 [5]
21 | Nc1ncnn2c([C@@H]3N[C@H](CO)[C@@H](O)[C@H]3O)cc(-c3cncs3)c12 [Compound I-027] | – | – | – | >48.5 | 4.99 | > 500 | – | –
22 | Nc1ncnn2c([C@@H]3N[C@H](CO)[C@@H](O)C3(F)F)ccc12 [Compound I-003] | – | – | – | >22.1 | 4.65 | > 500 | – | –
23 | Cl.Nc1ncnn2c([C@@H]3N[C@H](CO)[C@@H](O)[C@H]3O)cc(-c3n[nH]c4ccccc34)c12 [Compound I-049] | 397 | 5.7 | 4.16 | – | – | – | – | –
24 | C#CCNC(=O)c1cc([C@@H]2N[C@H](CO)[C@@H](O)[C@H]2O)n2ncnc(N)c12 [Compound I-075] | > 500 | >185 | 5.57 | – | – | – | – | –
25 | Nc1ncnc2c([C@@H]3O[C@H](CO)[C@@H](O)[C@H]3O)ccn12 [Compound I-014] | – | – | – | 69.7 | 6.73 | 13.1 | – | –
26 | Cc1nc(N)c2ccc([C@@H]3N[C@H](CO)[C@@H](O)[C@H]3O)n2n1.Cl.Cl [Compound I-005] | – | – | – | >2.13 | 3.63 | > 500 | – | –
27 | Cl.Cn1cc(-c2cc([C@@H]3N[C@H](CO)[C@@H](O)[C@H]3O)n3ncnc(N)c23)nn1 [Compound I-040] | > 500 | >5.93 | 4.07 | – | – | – | – | –
28 | Cl.NC(=O)c1cc([C@@H]2N[C@H](CO)[C@@H](O)[C@H]2O)n2nc(F)nc(N)c12 [Compound I-057] | 56.8 | 434 | 6.88 | – | – | – | – | –
29 | Cl.N/C(=N\O)c1cc([C@@H]2N[C@H](CO)[C@@H](O)[C@H]2O)n2nc(F)nc(N)c12 [Compound I-056] | > 500 | >17.7 | 4.55 | – | – | – | – | –
30 | Cl.Nc1nc(F)nn2c([C@@H]3N[C@H](CO)[C@@H](O)[C@H]3O)cc(-c3cc[nH]n3)c12 [Compound I-052] | > 500 | >79.7 | 5.20 | – | – | – | – | –
31 | Nc1ncnn2c([C@@H]3N[C@H](CO)[C@@H](O)[C@H]3O)cc(-c3cccnc3)c12 [Compound I-041] | – | – | – | >76.2 | 5.25 | > 500 | – | –
32 | Cl.Nc1ncnn2c([C@@H]3N[C@H](CO)[C@@H](O)[C@H]3O)cc(-c3ccc(F)cn3)c12 [Compound I-051] | > 500 | >6.13 | 4.09 | – | – | – | – | –
33 | Cn1cnc(-c2cc([C@@H]3N[C@H](CO)[C@@H](O)[C@H]3O)n3ncnc(N)c23)c1 [Compound I-039] | > 500 | >6.02 | 4.08 | – | – | – | – | –
34 | Cl.Nc1ncnn2c([C@@H]3N[C@H](CO)[C@@H](O)[C@H]3O)cc(-c3nccs3)c12 [Compound I-021] | – | – | – | >20.9 | 4.62 | > 500 | – | –
35 | Nc1ncnn2c([C@@H]3N[C@H](CO)[C@@H](O)[C@H]3O)cc(-c3c[nH]nn3)c12 [Compound I-053] | 315 | 677 | 6.33 | – | – | – | – | –
36 | Nc1ncnc2c([C@@H]3N[C@H](CO)[C@@H](O)[C@H]3O)cnn12 [WO2006002231 Example 13_9-4, reference compound] | – | – | – | 4.69 | 4.06 | – | – | –
37 | CCC1[C@@H](c2ccc3c(N)ncnn23)[C@H](O)[C@H](O)[C@H]1CO (stereo partly drawn) [Compound I-007] | – | – | – | 1.06 | 3.33 | > 500 | – | –
38 | Nc1ncnn2c([C@@H]3N[C@@H](CO)[C@@H](O)[C@H]3F)ccc12 [Compound I-009] | – | – | – | 1.23 | 3.39 | > 500 | – | –
39 | Nc1ncnc2c([C@@H]3N[C@H](CO)[C@@H](O)[C@H]3O)c[nH]c12 [Galidesivir, reference compound] | – | – | < 4.00 | – | – | – | <5.3 | < 4.70
40 | Nc1nc(F)nn2c([C@@H]3N[C@H](CO)[C@@H](O)[C@H]3O)ccc12 [Compound I-004] | – | – | – | >2.06 | 3.61 | > 500 | – | –
